Measurements as given in PubChem BioAssay (NCI).
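Each compound was tested at five concentrations against cells in 96-well plates for 48 hours. At the GI50, growth is halved. At the TGI there is no net growth.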

Columns and labels:
Test in all cases: NCI anticancer screen, dose series, 48 h
[1] = test system: SF-295 CNS
[2] = test system: KM20L2 colon
[3] = test system: HOP-92 NSCLC
[4] = test system: SW-620 colon
[5] = test system: 786-0 renal
[6] = test system: LXFL 529 NSCLC
[7] = test system: OVCAR-5 ovarian
[8] = test system: ACHN renal
[9] = test system: MOLT-4 leukemia
[10] = test system: NCI/ADR-RES ovarian

Compound | TGI [1] [µM] | TGI [2] [µM] | TGI [3] [µM] | TGI [4] [µM] | TGI [5] [µM] | TGI [6] [µM] | TGI [7] [µM] | TGI [8] [µM] | TGI [9] [µM] | GI50 [2] [µM] | GI50 [3] [µM] | GI50 [4] [µM] | GI50 [5] [µM] | GI50 [6] [µM] | GI50 [8] [µM] | GI50 [9] [µM] | TGI [10] [µM] | GI50 [1] [µM] | GI50 [10] [µM] | GI50 [7] [µM]
COC(=O)C1C(OCc2ccccc2)C2CCC1(OC)C=C2C (stereo not given) | > 100 | > 100 | > 100 | > 100 | > 100 | > 100 | > 100 | > 100 | 80.6 | – | – | – | – | – | – | – | – | – | – | –
O=C(c1ccc(Cl)cc1)c1ccc(OCCSCCCCCCCCCCSCCOc2ccc(C(=O)c3ccc(Cl)cc3)cc2)cc1 | > 100 | > 100 | > 100 | > 100 | > 100 | – | > 100 | > 100 | > 100 | – | – | – | – | – | – | – | – | – | – | –
C1=Nc2ccccc2C=Nc2ccccc2C=Nc2ccccc2C=Nc2ccccc21.[Cl-].[Pt+2] | – | 58 | 48.7 | > 100 | 97.1 | 60 | – | 49 | 49.3 | 21 | 19.3 | 27.6 | 32.2 | 10.3 | 19 | 14.1 | – | – | – | –
COc1cc(Nc2nc3ccc(C(F)(F)F)cc3nc2-c2ccccc2)cc(OC)c1OC | 11.6 | 26 | 6.17 | > 100 | > 100 | > 100 | 53.1 | > 100 | > 100 | – | – | – | – | – | – | – | – | – | – | –
NS(=O)(=O)c1ccc(NC(=O)c2cccc3cc4ccccc4nc23)cc1 | > 100 | > 100 | > 100 | > 100 | > 100 | > 100 | > 100 | > 100 | 68.4 | – | – | – | – | – | – | – | > 100 | – | – | –
COc1cc2c(cn1)[nH]c1ccccc12 | > 100 | > 100 | > 100 | > 100 | > 100 | > 100 | > 100 | > 100 | > 100 | – | – | – | – | – | – | – | – | – | – | –
NNC(=O)/C(NC(=O)c1ccccc1)=C(\N)c1ccc(Cl)cc1 | > 100 | > 100 | > 100 | > 100 | > 100 | > 100 | > 100 | > 100 | > 100 | – | – | – | – | – | – | – | – | – | – | –
CC(C)CN(CC(C)C)C(=O)C1CCCC[C@@H]1C(=O)O (stereo not given in full) | > 100 | > 100 | > 100 | > 100 | > 100 | > 100 | – | > 100 | > 100 | – | – | – | – | – | – | – | – | – | – | –
C=CCn1cc(C(=O)NC(=O)NCCCCCOC(=O)CCCCCCCCCCC(=O)OCCCCCNC(=O)NC(=O)c2cn(CC=C)c(=O)n(C)c2=O)c(=O)n(C)c1=O | – | > 100 | > 100 | > 100 | > 100 | > 100 | > 100 | > 100 | > 100 | – | – | – | – | – | – | – | – | – | – | –
Cc1cccc(C)c1NC(=O)CCc1n[nH]c(=S)o1 | > 100 | > 100 | > 100 | 36.2 | > 100 | > 100 | > 100 | > 100 | > 100 | – | – | – | – | – | – | – | – | – | – | –
S=c1nc(N2CCCCC2)ss1 | 81.4 | > 100 | 36.7 | 72.4 | 48.1 | 54.2 | > 100 | 67 | 33.3 | – | – | – | – | – | – | – | – | – | – | –
CC(=O)/C=C/c1ccc(C)cc1 | > 100 | > 100 | > 100 | > 100 | > 100 | > 100 | > 100 | > 100 | > 100 | – | – | – | – | – | – | – | – | – | – | –
COc1ccc(-c2c(N)[n+]([O-])c3ccccc3[n+]2[O-])cc1OC | > 100 | > 100 | > 100 | > 100 | > 100 | > 100 | > 100 | > 100 | > 100 | – | – | – | – | – | – | – | – | – | – | –
Cc1c2c(cc3c(=O)ccn(CCN(C)C)c13)c(=O)ccn2CCN(C)C | 25.4 | 20.8 | 31.3 | 20.5 | 17.5 | 19.8 | 42.3 | 26.3 | 13.6 | – | – | – | – | – | – | – | – | – | – | –
CC1C(=O)O[C@H]2C1CC[C@@]1(C)[C@H](O)CC[C@@]13C[C@]2(O)OO3 (stereo not given in full) | > 100 | > 100 | > 100 | > 100 | > 100 | > 100 | > 100 | > 100 | > 100 | – | – | – | – | – | – | – | – | – | – | –
CCOP(=O)(OCC)C1=NC=CC=CC1n1c(-c2ccccc2)nn(CC)c1=O (stereo not given) | > 100 | > 100 | > 100 | > 100 | > 100 | > 100 | – | > 100 | > 100 | – | – | – | – | – | – | – | – | – | – | –
N#CC1CC2(C(=O)C1=O)c1ccccc1-c1ccccc12 (stereo not given) | > 100 | > 100 | – | > 100 | > 100 | > 100 | > 100 | > 100 | > 100 | – | – | – | – | – | – | – | – | – | – | –
CCOC(=O)/C(=C\c1ccc[nH]1)C(=O)c1ccccc1 | > 100 | > 100 | > 100 | > 100 | > 100 | > 100 | > 100 | > 100 | > 100 | – | – | – | – | – | – | – | – | – | – | –
O=c1c2cccnc2ncn1CCN1CCCC1 | > 100 | > 100 | > 100 | > 100 | > 100 | > 100 | > 100 | > 100 | > 100 | – | – | – | – | – | – | – | – | – | – | –
CC/C=C/c1cc2cc[nH]c2c2c1C(C)C[C@@H]2C (stereo not given in full) | 55.9 | – | 62.6 | 94.8 | 36.4 | 41.9 | – | > 100 | 53.3 | – | – | – | – | – | – | – | – | – | – | –
CSc1ncnc2c1CCN2 | > 100 | – | > 100 | > 100 | > 100 | > 100 | – | – | – | – | 75 | > 100 | > 100 | – | – | – | – | > 100 | – | –
COc1ccc(N(/C=C/C(=O)C(F)(F)F)CC(=O)c2ccc(Cl)c(Cl)c2)cc1 | 28.6 | – | 41.8 | > 100 | 29.5 | – | 30.2 | 25.1 | > 100 | – | 13.2 | 27 | 15.5 | – | 12.2 | 3.9 | 39.3 | 14.5 | 19 | 16.5
O=C(Nc1cccc(-n2cc(-c3ccncc3)c(-c3ccc(O)c(Cl)c3)n2)c1)Nc1cccc(C(F)(F)F)c1 | 5.47 | – | 4.14 | 8.21 | 9.2 | – | 36.3 | 8.4 | 4.94 | – | 1.07 | 2.66 | 2.15 | – | 2.51 | 1.68 | > 100 | 1.97 | 3.24 | 3.5
